Reference: PubChem BioAssay (NCI)
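Step 1: Grow cells in 96-well plates. Step 2: Expose to compound for 48 hours at 5 concentrations. Step 3: Interpolate endpoints linearly; if unreached, use highest concentration. TGI denotes the concentration required for complete inhibition of growth.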

Experiments:
Assay in all cases: DTP human tumour cell line panel, 48 h
786-0 renal = tested on: 786-0 renal
A498 renal = tested on: A498 renal
A549 NSCLC = tested on: A549 NSCLC
ACHN renal = tested on: ACHN renal
BT-549 breast = tested on: BT-549 breast
CAKI-1 renal = tested on: CAKI-1 renal
CCRF-CEM leukemia = tested on: CCRF-CEM leukemia
COLO 205 colon = tested on: COLO 205 colon
DU-145 prostate = tested on: DU-145 prostate
EKVX NSCLC = tested on: EKVX NSCLC
HCC-2998 colon = tested on: HCC-2998 colon
HCT-116 colon = tested on: HCT-116 colon
HCT-15 colon = tested on: HCT-15 colon
HL-60(TB) leukemia = tested on: HL-60(TB) leukemia
HOP-62 NSCLC = tested on: HOP-62 NSCLC
HOP-92 NSCLC = tested on: HOP-92 NSCLC
HS 578T breast = tested on: HS 578T breast
HT29 colon = tested on: HT29 colon
IGROV1 ovarian = tested on: IGROV1 ovarian
K-562 leukemia = tested on: K-562 leukemia
KM12 colon = tested on: KM12 colon
LOX IMVI melanoma = tested on: LOX IMVI melanoma
M14 melanoma = tested on: M14 melanoma
MALME-3M melanoma = tested on: MALME-3M melanoma
MCF7 breast = tested on: MCF7 breast
MDA-MB-231 breast = tested on: MDA-MB-231 breast
MDA-MB-435 = tested on: MDA-MB-435
MDA-N = tested on: MDA-N
MOLT-4 leukemia = tested on: MOLT-4 leukemia
NCI-H226 lung = tested on: NCI-H226 lung
NCI-H23 lung = tested on: NCI-H23 lung
NCI-H522 lung = tested on: NCI-H522 lung
NCI/ADR-RES ovarian = tested on: NCI/ADR-RES ovarian
OVCAR-3 ovarian = tested on: OVCAR-3 ovarian
OVCAR-4 ovarian = tested on: OVCAR-4 ovarian
OVCAR-5 ovarian = tested on: OVCAR-5 ovarian
OVCAR-8 ovarian = tested on: OVCAR-8 ovarian
PC-3 prostate = tested on: PC-3 prostate
RPMI-8226 leukemia = tested on: RPMI-8226 leukemia
RXF 393 renal = tested on: RXF 393 renal
SF-268 CNS = tested on: SF-268 CNS
SF-295 CNS = tested on: SF-295 CNS
SK-MEL-2 melanoma = tested on: SK-MEL-2 melanoma
SK-MEL-28 melanoma = tested on: SK-MEL-28 melanoma
SK-MEL-5 melanoma = tested on: SK-MEL-5 melanoma
SK-OV-3 ovarian = tested on: SK-OV-3 ovarian
SN12C renal = tested on: SN12C renal
SNB-19 CNS = tested on: SNB-19 CNS
SNB-75 CNS = tested on: SNB-75 CNS
SR leukemia = tested on: SR leukemia
SW-620 colon = tested on: SW-620 colon
T-47D breast = tested on: T-47D breast
TK-10 renal = tested on: TK-10 renal
U251 CNS = tested on: U251 CNS
UACC-257 melanoma = tested on: UACC-257 melanoma
UO-31 renal = tested on: UO-31 renal
NCI-H460 lung = tested on: NCI-H460 lung
SF-539 CNS = tested on: SF-539 CNS
UACC-62 melanoma = tested on: UACC-62 melanoma

Measured: TGI

COc1ccc(OC)c(N2C(=O)/C(=C\c3ccccc3)SC2c2cc(OC)c(OC)c(OC)c2)c1 (stereo unspecified)
6.85 µM: ACHN renal
74.9 µM: NCI-H522 lung
> 42.7 µM: MCF7 breast
> 100 µM: 786-0 renal | A498 renal | A549 NSCLC | BT-549 breast | CAKI-1 renal | CCRF-CEM leukemia | COLO 205 colon | DU-145 prostate | EKVX NSCLC | HCC-2998 colon | HCT-116 colon | HCT-15 colon | HL-60(TB) leukemia | HOP-62 NSCLC | HOP-92 NSCLC | HS 578T breast | HT29 colon | IGROV1 ovarian | K-562 leukemia | KM12 colon | LOX IMVI melanoma | M14 melanoma | MALME-3M melanoma | MDA-MB-231 breast | MOLT-4 leukemia | NCI-H226 lung | NCI-H23 lung | NCI/ADR-RES ovarian | OVCAR-3 ovarian | OVCAR-4 ovarian | OVCAR-5 ovarian | OVCAR-8 ovarian | PC-3 prostate | RPMI-8226 leukemia | SF-268 CNS | SF-295 CNS | SK-MEL-2 melanoma | SK-MEL-28 melanoma | SK-MEL-5 melanoma | SK-OV-3 ovarian | SN12C renal | SNB-19 CNS | SNB-75 CNS | SR leukemia | SW-620 colon | T-47D breast | TK-10 renal | U251 CNS | UACC-257 melanoma | UO-31 renal
> 31.4 µM: RXF 393 renal
> 75 µM: MDA-MB-435
52.1 µM: MDA-N

CCCCc1ccc(Nc2nc(=S)c3ncn(COCCO)c3[nH]2)cc1
47.1 µM: MALME-3M melanoma
> 100 µM: 786-0 renal | A498 renal | A549 NSCLC | ACHN renal | BT-549 breast | CAKI-1 renal | DU-145 prostate | EKVX NSCLC | HCC-2998 colon | HCT-116 colon | HCT-15 colon | HOP-62 NSCLC | HS 578T breast | HT29 colon | IGROV1 ovarian | KM12 colon | M14 melanoma | MDA-MB-435 | MDA-N | MOLT-4 leukemia | NCI-H226 lung | NCI-H23 lung | NCI-H460 lung | NCI/ADR-RES ovarian | OVCAR-4 ovarian | OVCAR-5 ovarian | OVCAR-8 ovarian | PC-3 prostate | RXF 393 renal | SF-295 CNS | SF-539 CNS | SK-MEL-5 melanoma | SK-OV-3 ovarian | SN12C renal | SNB-19 CNS | SW-620 colon | TK-10 renal | U251 CNS | UACC-257 melanoma | UACC-62 melanoma | UO-31 renal
51.3 µM: NCI-H522 lung
76.1 µM: LOX IMVI melanoma
51.7 µM: K-562 leukemia
57.6 µM: MDA-MB-231 breast
54.4 µM: HL-60(TB) leukemia
44.5 µM: COLO 205 colon
54 µM: RPMI-8226 leukemia
59.7 µM: CCRF-CEM leukemia
54.1 µM: MCF7 breast
66.7 µM: SR leukemia
90.4 µM: SK-MEL-2 melanoma
97.9 µM: SNB-75 CNS
63.4 µM: HOP-92 NSCLC
46.8 µM: T-47D breast
74.4 µM: OVCAR-3 ovarian

O=c1[nH]nc(Cc2ccccc2)n1/N=C\CC/C=N\n1c(Cc2ccccc2)n[nH]c1=O
58.7 µM: SNB-75 CNS
83.1 µM: NCI-H226 lung
66.6 µM: NCI-H23 lung
40.7 µM: IGROV1 ovarian
46.6 µM: UACC-62 melanoma
72.5 µM: RXF 393 renal
90.3 µM: SK-MEL-2 melanoma
48.7 µM: HCT-116 colon
77.7 µM: MALME-3M melanoma | SF-268 CNS
53.1 µM: HS 578T breast
88.4 µM: HOP-62 NSCLC
66.3 µM: SF-539 CNS
41.5 µM: NCI/ADR-RES ovarian
75 µM: HCT-15 colon
> 100 µM: 786-0 renal | A498 renal | A549 NSCLC | ACHN renal | BT-549 breast | CAKI-1 renal | CCRF-CEM leukemia | COLO 205 colon | DU-145 prostate | EKVX NSCLC | HCC-2998 colon | HL-60(TB) leukemia | HOP-92 NSCLC | K-562 leukemia | KM12 colon | LOX IMVI melanoma | M14 melanoma | MCF7 breast | MDA-MB-231 breast | MDA-MB-435 | MDA-N | MOLT-4 leukemia | NCI-H522 lung | OVCAR-3 ovarian | OVCAR-4 ovarian | OVCAR-5 ovarian | PC-3 prostate | SF-295 CNS | SK-MEL-28 melanoma | SK-MEL-5 melanoma | SK-OV-3 ovarian | SN12C renal | SNB-19 CNS | SR leukemia | SW-620 colon | T-47D breast | TK-10 renal | U251 CNS | UACC-257 melanoma | UO-31 renal
80.9 µM: RPMI-8226 leukemia
83.3 µM: HT29 colon
58.9 µM: OVCAR-8 ovarian
